Data taken from PubChem BioAssay AID179 (DTP/NCI, 2004).
Calls of active or inactive are those of the source.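 How the source made its calls: active means compounds giving half or more protection of infected cells from virus-caused growth loss, again on retest; inactive means the rest.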

System: CEM cells HIV-1 protection, formazan growth assay
Experiment: NCI AIDS Antiviral Assay
Conditions: for IC50: measured here: growth of uninfected CEM cells
Method in brief: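 Protection of CEM cells against HIV-1 was scored from cell growth (soluble formazan) across five concentrations, with parallel uninfected cells. Lack of protection may reflect toxicity.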

Row | Compound | outcome | EC50 | IC50
1 | O=S(O)CCCCCSSCCCCSSCCCCCS(=O)O | inactive |  | 
2 | CCCC1=C(CC)C(C(=O)Nc2c(C)cccc2C)=NC(S)N1 (stereo unspecified) |  | > 107 µM | > 107 µM
3 | COC(=O)[C@@]1(C(C)CC(=O)O)CCCCC1=O (stereo partly specified) |  | > 1020 µM | 214 µM
4 | O=[N+]1[C@H](c2ccccc2)[C@H](c2ccccc2)N1[O-] |  | > 200 µM | 11.5 µM
5 | CCN(CC)CSc1nc2ccccc2s1 | inactive |  | 
6 | COc1cc([C@H]2c3cc(O)c(OC)cc3CC3C(=O)OCC32)ccc1O (stereo partly specified) |  | > 363 µM | > 363 µM
7 | O=C(NN1C(=O)CSC1c1ccco1)c1ccncc1 (stereo unspecified) |  | > 200 µM | > 200 µM
8 | O=C1CSc2nc3ccccc3n2/C=N\N1 |  | > 200 µM | > 200 µM
9 | CC1(C)OC2C(CO)OC(/N=C(\NC#N)Oc3ccccc3)C2O1 (stereo unspecified) |  | > 200 µM | > 200 µM
